Experimental data published in the kinase profiling compilation of Christmann-Franck et al. (2016).

Key:
Test in all cases: HTRF
RET (human) = RET (human) (UniProt P07949)
SRC (human) = SRC (human) (UniProt P12931)
NTRK2 (human) = NTRK2 (human) (UniProt Q16620)
MET (human) = MET (human) (UniProt P08581)
BLK (human) = BLK (human) (UniProt P51451)
FER (human) = FER (human) (UniProt P16591)
CSF1R (human) = CSF1R (human) (UniProt P07333)
KIT (human) = KIT (human) (UniProt P10721)
KDR (human) = KDR (human) (UniProt P35968)
Chain of KDR (human) (P35968 whole entry, looked up): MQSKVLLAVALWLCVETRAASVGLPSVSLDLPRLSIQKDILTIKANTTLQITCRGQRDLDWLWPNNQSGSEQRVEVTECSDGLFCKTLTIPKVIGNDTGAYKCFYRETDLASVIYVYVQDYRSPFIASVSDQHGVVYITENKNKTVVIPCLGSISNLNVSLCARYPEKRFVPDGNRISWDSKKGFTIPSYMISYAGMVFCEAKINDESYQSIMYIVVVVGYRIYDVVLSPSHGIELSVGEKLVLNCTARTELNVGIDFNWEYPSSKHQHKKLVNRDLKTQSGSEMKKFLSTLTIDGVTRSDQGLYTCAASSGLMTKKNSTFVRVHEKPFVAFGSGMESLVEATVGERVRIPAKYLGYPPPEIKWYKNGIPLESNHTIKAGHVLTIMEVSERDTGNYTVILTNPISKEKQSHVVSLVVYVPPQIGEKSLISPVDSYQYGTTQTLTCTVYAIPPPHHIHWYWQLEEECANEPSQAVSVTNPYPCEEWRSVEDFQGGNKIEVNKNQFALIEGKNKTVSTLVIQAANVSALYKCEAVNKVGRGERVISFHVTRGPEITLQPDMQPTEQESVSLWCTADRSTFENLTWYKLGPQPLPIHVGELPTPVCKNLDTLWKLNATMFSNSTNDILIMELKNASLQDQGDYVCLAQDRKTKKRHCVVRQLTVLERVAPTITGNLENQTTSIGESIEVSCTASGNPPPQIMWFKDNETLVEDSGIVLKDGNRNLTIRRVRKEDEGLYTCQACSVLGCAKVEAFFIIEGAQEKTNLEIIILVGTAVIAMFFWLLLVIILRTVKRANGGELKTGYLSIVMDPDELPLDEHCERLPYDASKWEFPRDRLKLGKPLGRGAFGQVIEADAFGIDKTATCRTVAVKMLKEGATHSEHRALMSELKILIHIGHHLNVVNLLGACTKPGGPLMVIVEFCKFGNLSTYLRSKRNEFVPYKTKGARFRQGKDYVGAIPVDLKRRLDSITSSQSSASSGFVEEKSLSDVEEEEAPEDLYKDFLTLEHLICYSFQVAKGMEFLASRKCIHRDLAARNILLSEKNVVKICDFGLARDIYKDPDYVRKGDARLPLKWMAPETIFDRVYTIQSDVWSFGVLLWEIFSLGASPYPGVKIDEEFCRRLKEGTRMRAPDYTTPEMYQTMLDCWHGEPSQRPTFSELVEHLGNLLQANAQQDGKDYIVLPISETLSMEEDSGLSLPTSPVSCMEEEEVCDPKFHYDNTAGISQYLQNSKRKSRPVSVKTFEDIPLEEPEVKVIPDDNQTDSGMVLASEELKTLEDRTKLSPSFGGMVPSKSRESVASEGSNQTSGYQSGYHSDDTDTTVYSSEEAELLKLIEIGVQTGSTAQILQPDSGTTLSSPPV

FLT1 (human) = FLT1 (human) (UniProt P17948)
FGFR3 (human) = FGFR3 (human) (UniProt P22607)
FLT3 (human) = FLT3 (human) (UniProt P36888)
NTRK1 (human) = NTRK1 (human) (UniProt P04629)
IGF1R (human) = IGF1R (human) (UniProt P08069)
Chain of IGF1R (human) (P08069 whole entry, looked up): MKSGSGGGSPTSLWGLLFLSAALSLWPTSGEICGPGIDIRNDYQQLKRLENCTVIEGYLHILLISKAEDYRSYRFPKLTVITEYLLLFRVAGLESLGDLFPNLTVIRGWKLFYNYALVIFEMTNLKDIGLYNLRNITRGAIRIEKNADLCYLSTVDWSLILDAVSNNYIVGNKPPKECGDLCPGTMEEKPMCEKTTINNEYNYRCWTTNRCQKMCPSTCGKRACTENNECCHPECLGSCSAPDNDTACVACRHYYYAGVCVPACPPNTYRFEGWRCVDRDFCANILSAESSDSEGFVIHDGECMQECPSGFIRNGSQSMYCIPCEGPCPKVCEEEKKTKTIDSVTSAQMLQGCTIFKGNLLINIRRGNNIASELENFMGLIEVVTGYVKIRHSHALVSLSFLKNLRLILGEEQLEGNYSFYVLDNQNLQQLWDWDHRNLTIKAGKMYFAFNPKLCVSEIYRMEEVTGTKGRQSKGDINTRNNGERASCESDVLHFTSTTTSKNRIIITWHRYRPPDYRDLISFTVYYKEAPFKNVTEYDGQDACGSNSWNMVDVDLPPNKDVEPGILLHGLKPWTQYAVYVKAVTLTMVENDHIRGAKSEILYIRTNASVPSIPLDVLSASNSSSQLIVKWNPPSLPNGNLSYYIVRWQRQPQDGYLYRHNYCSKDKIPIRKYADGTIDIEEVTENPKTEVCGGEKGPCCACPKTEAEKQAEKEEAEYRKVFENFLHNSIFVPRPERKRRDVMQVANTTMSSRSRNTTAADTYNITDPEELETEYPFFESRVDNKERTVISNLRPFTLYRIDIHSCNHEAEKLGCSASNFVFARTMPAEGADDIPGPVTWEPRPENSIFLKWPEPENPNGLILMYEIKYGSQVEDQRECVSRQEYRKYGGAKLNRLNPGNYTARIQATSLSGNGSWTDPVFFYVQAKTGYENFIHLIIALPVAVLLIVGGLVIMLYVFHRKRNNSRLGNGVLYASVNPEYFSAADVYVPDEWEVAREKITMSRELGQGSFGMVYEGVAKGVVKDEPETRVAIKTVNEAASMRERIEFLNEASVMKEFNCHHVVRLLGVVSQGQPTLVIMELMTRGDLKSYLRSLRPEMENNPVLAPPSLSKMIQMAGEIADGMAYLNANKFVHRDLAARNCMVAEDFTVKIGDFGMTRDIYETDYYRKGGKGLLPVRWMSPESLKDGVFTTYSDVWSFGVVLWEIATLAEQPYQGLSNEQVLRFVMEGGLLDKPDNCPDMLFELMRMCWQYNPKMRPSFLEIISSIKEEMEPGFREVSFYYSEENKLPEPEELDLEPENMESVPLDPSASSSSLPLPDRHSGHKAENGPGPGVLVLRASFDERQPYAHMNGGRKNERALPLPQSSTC

TYRO3 (human) = TYRO3 (human) (UniProt Q06418)
FYN (human) = FYN (human) (UniProt P06241)
Chain of FYN (human) (P06241 whole entry, looked up): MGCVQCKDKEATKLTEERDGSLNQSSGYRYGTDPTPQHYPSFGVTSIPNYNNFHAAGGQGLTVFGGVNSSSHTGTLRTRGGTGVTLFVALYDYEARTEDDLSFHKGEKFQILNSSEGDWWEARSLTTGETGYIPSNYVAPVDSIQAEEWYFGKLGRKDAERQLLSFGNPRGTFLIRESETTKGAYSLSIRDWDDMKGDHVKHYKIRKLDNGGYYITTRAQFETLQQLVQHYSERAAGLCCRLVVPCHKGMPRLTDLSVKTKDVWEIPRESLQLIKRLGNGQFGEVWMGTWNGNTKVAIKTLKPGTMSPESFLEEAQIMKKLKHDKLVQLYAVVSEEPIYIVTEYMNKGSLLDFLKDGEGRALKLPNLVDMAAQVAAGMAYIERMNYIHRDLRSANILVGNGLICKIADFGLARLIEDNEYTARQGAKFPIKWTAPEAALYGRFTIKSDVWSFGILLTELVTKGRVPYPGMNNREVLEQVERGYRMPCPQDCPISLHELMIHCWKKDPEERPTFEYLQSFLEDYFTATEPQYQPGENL

INSR (human) = INSR (human) (UniProt P06213)
FGFR1 (human) = FGFR1 (human) (UniProt P11362)
EPHA2 (human) = EPHA2 (human) (UniProt P29317)
ERBB4 (human) = ERBB4 (human) (UniProt Q15303)
MATK (human) = MATK (human) (UniProt P42679)
TYK2 JH1 JH2 (human) = TYK2 JH1 JH2 (human) (UniProt P29597)
SRMS (human) = SRMS (human) (UniProt Q9H3Y6)
Chain of SRMS (human) (Q9H3Y6 whole entry, looked up): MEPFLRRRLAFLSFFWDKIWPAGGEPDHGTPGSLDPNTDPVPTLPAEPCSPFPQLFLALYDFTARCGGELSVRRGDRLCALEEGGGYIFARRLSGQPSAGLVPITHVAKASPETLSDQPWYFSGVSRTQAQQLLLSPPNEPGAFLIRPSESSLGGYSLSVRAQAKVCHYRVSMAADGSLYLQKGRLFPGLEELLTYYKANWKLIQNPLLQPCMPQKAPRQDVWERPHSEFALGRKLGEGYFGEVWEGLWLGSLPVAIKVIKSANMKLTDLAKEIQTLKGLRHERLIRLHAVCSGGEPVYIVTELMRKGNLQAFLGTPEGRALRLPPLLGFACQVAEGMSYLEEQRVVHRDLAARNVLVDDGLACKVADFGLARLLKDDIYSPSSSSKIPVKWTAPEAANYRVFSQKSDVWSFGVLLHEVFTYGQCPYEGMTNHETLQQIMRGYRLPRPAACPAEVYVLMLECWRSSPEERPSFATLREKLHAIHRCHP

FLT4 (human) = FLT4 (human) (UniProt P35916)
FRK (human) = FRK (human) (UniProt P42685)
Chain of FRK (human) (P42685 whole entry, looked up): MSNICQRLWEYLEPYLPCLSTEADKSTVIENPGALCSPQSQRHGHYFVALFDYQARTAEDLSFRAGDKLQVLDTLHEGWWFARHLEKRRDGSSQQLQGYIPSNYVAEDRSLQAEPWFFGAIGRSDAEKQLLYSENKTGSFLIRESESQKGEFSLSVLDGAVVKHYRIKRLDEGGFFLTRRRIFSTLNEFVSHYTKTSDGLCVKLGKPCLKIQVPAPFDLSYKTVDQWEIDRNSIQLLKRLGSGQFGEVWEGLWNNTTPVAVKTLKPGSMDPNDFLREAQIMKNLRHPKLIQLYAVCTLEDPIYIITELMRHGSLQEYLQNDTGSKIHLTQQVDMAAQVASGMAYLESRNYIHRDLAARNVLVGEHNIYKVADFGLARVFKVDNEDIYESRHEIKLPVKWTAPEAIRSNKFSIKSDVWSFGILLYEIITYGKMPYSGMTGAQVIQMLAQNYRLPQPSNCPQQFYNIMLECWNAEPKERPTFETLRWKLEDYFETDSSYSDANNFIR

LCK (human) = LCK (human) (UniProt P06239)

Chain of BLK (human) (P51451 whole entry, looked up): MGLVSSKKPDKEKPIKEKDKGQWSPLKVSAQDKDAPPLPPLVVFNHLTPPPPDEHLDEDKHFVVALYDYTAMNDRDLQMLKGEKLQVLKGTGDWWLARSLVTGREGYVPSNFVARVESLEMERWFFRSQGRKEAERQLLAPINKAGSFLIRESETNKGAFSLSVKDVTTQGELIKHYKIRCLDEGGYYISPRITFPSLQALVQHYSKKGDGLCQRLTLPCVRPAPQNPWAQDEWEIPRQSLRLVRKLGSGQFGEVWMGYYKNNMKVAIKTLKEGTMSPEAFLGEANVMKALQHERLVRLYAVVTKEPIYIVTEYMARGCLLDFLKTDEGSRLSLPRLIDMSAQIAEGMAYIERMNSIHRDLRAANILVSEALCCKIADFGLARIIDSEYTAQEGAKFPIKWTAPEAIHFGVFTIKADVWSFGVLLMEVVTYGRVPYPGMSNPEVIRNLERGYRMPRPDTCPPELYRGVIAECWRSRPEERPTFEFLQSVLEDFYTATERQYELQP

O=C1c2ccccc2-c2n[nH]c3cccc1c23
Ki (RET (human)): 63.1 nM | Ki (SRC (human)): > 2000 nM | Ki (NTRK2 (human)): 794 nM | Ki (MET (human)): 501 nM | Ki (BLK (human)): 200 nM | Ki (FER (human)): 50.1 nM | Ki (CSF1R (human)): 126 nM | Ki (KIT (human)): 1260 nM | Ki (KDR (human)): 631 nM | Ki (FLT1 (human)): 200 nM | Ki (FGFR3 (human)): 158 nM | Ki (FLT3 (human)): 50.1 nM | Ki (NTRK1 (human)): 1260 nM | Ki (IGF1R (human)): > 2000 nM | Ki (TYRO3 (human)): 1000 nM | Ki (FYN (human)): > 794 nM | Ki (INSR (human)): 501 nM | Ki (FGFR1 (human)): 251 nM | Ki (EPHA2 (human)): > 3.16 µM | Ki (ERBB4 (human)): 3.98 µM | Ki (MATK (human)): 501 nM | Ki (TYK2 JH1 JH2 (human)): 1260 nM | Ki (SRMS (human)): > 1580 nM | Ki (FLT4 (human)): 15.8 nM | Ki (FRK (human)): 63.1 nM | Ki (LCK (human)): 2000 nM
